Assay results: patent publication US9884126B2, “Anti-wall teichoic antibodies and conjugates” (priority 2013, dated 2018)
In brackets after ≈: the same amount, converted by molar mass.

Assays:
MRSA [1] = conditions: TSB; vancomycin 2 and 20 μg/mL, rifampin 0.02 and 0.2 μg/mL
USA300 = test: Intravenous infection model, pre-treatment in Balb/c mice; type: in vivo; conditions: antibodies 50 mg/Kg IV 30 minutes prior to infection; vancomycin 110 mg/Kg twice daily; day 4
Experimental: Balb/c mice were given a single dose of vehicle control (PBS) or 50 mg/Kg of antibodies by intravenous injection 30 minutes prior to infection with 2×10^7 CFU of USA300. […] Control mice were given twice daily treatments with 110 mg/Kg of vancomycin by intraperitoneal injection (Vanco). All mice were sacrificed on day 4 post-infection, and the total number of surviving bacteria in kidneys (2 kidneys pooled) was determined by plating.
7 week old female mice were used for all in vivo experiments and infections were carried out by intravenous injection into the tail vein. A/J mice (Jackson Lab) were infected with a dose of 2×10^6 CFU. Balb/c mice (Charles River Laboratories, Hollister, Calif.) were infected with a dose of 2×10^7 CFU. For studies examining the role of competing human IgG (SCID IVIG model), CB17.SCID mice (Charles River Laboratories, Hollister, Calif.) were reconstituted with GammaGard S/D IGIV Immune Globulin (ASD Healthcare, Brooks KY) using a dosing regimen optimized to achieve constant serum levels of >10 mg/mL of human IgG. […] The total number of bacteria recovered per mouse (2 kidneys) was determined by plating serial dilutions of the tissue homogenate in PBS 0.05% Tween on Tryptic Soy Agar with 5% defibrinated sheep blood.

[2] = test system: MRSA (NRS384 strain of USA300); test: MIC determination / killing of intracellular bacteria in mouse peritoneal macrophages; type: cell-based, Staphylococcus aureus
MRSA (USA300) = test: Intravenous infection model in CB17.SCID mice reconstituted with human IgG (SCID:huIgG); type: in vivo
Experimental: To confirm that the AAC would be effective in the presence of competing human antibodies in vivo, the in vivo infection model was modified to generate mice that express normal levels of human IgG in the serum. […] Four days after infection the bacterial load in the kidneys (FIG. 10C) was assessed.
CB17.SCID mice were reconstituted with human IgG using a dosing regimen optimized to yield constant levels of at least 10 mg/mL of human IgG in serum.
Efficacy of the AAC was compared with that of treatment with vancomycin, the current standard of care treatment for MRSA infections. […]
CB17.SCID mice were reconstituted with human IgG using a dosing regimen optimized to yield constant levels of at least 10 mg/mL of human IgG in serum and infected with 2×10^7 CFU of USA300 by intravenous injection. […] The mice were sacrificed on day 4 post infection, and the total number of surviving bacteria in kidneys (2 kidneys pooled, FIG. 21) and heart (FIG. 22) was determined by plating.
7 week old female mice were used for all in vivo experiments and infections were carried out by intravenous injection into the tail vein. […] The total number of bacteria recovered per mouse (2 kidneys) was determined by plating serial dilutions of the tissue homogenate in PBS 0.05% Tween on Tryptic Soy Agar with 5% defibrinated sheep blood.

[3] = test system: MRSA (NRS384 strain of USA300); test: MIC determination for extracellular bacteria; type: cell-based; conditions: Staphylococcus aureus, read-out: Extracellular MRSA MIC
Experimental: Dilutions of the antibiotic were made in quadruplicate in 96 well culture dishes. MRSA (NRS384 strain of USA300) was taken from an exponentially growing culture and diluted to 1×10^4 CFU/mL. Bacteria was cultured in the presence of antibiotic for 18-24 hours with shaking at 37° C. and bacterial growth was determined by reading the Optical Density (OD) at […]. The MIC was determined to be the dose of antibiotic that inhibited bacterial growth by >90%.

MRSA [4] = test: Transfer of infection from peritoneal cells to MG63 osteoblasts in the presence of vancomycin; type: cell-based, Staphylococcus aureus; conditions: 5 μg/mL of vancomycin
Experimental: 6-8 week old female A/J mice (JAX™ Mice, Jackson Laboratories) were infected with 1×10^8 CFU of the NRS384 strain of USA300 by peritoneal injection. The peritoneal wash was harvested 1 day post infection, and the infected peritoneal cells were treated with 50 μg/mL of lysostaphin diluted in Hepes Buffer supplemented with 0.1% BSA (HB buffer) for 30 minutes at 37° C. Peritoneal cells were then washed 2× in ice cold HB buffer. The peritoneal cells were diluted to 1×10^6 cells/mL in RPMI 1640 tissue culture media supplemented with 10 mM Hepes and 10% Fetal Calf Serum, and 5 μg/mL vancomycin. Free MRSA from the primary infection was stored overnight at 4° C. in Phosphate Buffered Saline Solution as a control for extracellular bacteria that were not subject to neutrophil killing.
MG63 osteoblast cell line was obtained from ATCC (CRL-1427) and maintained in RPMI 1640 tissue culture media supplemented with 10 mM Hepes and 10% Fetal Calf Serum (RPMI-10). […] The actual titer for all infections was determined by plating serial dilutions of the bacteria on Tryptic Soy Agar with 5% defibrinated sheep blood.
To generate a pool of intracellular S. aureus, A/J mice were infected with MRSA and infected peritoneal cells were taken 1 day post infection. […] The total number of surviving intracellular bacteria in each well was determined by plating cell lysates on agar plates. […]

**Q.** What does the source list for `CN[C@H](CC(C)C)C(=O)N[C@H]1C(=O)N[C@@H](CC(N)=O)C(=O)N[C@H]2C(=O)N[C@H]3C(=O)N[C@H](C(=O)N[C@H](C(=O)O)c4cc(O)cc(O)c4-c4cc3ccc4O)[C@H](O)c3ccc(c(Cl)c3)Oc3cc2cc(c3O[C@@H]2O[C@H](CO)[C@@H](O)[C@H](O)[C@H]2O[C@H]2C[C@](C)(N)[C@H](O)[C@H](C)O2)Oc2ccc(cc2Cl)[C@H]1O` [Vancomycin]?
**A.** bacteria remaining viable during the first two hours of treatment (MRSA [1]): 90%; loss in viable bacteria by 5 hours (MRSA [1]): 100 fold; effect of pre-treatment on bacterial loads in kidneys (USA300): cleared the infection in all of the mice tested; MIC ([2]; Staphylococcus aureus, 24 h, MRSA inside mouse peritoneal macrophages, […]): > 100 µg/mL; killing of intracellular MRSA sequestered inside macrophages ([2]; doses including clinically achieveable serum levels): failed to kill; efficacy in SCID:huIgG mice (kidney bacteria day 4) (MRSA (USA300); AAC single dose 50 mg/Kg day 1, vancomycin 100 mg/Kg twice daily): failed to clear the infection; reduction of bacterial loads (MRSA (USA300); twice-daily 100 mg/Kg, initiated more than 1 day post infection): about 50 fold; MIC [3]: 1 µg/mL (≈ 0.69 µM); intracellular bacteria recovered from MG63 wells 1 day after infection (MRSA [4]; infected with 3×10^4 intracellular bacteria): 8,750 intracellular bacteria; intracellular bacteria recovered from MG63 wells 1 day post infection (MRSA [4]; infected with a similar dose of free MRSA): 375 intracellular bacteria
